These results are taken from patent publication US12048281B2, “Method for treating post-emergent rice” (BASF SE, priority 2009, dated 2024).

For data set [1], the system named is transgenic Indica1 rice callus, ACC gene containing I1781(Am)L and I2041(Am)N. Put plainly: Growth of transgenic Indica1 callus on selection media. Type of data set: cell-based, Oryza sativa. The following applies: construct I1781(Am)L. The method, then: (§1) Indica1 and Nipponbare rice callus transformation was carried out essentially as described in Hiei and Komari (2008) with the exception of media substitutions as specified (see attached media table for details). Callus was induced on R001M media for 4-8 weeks prior to use in transformation. Agrobacterium utilized was LBA4404(pSB1) (Ishida et al. 1996) transformed with RLM185 (L. Mankin, unpublished: contains DsRed and a mutant AHAS for selection), ACC gene containing I1781(Am)L, ACC gene containing I1781(Am)L and W2027C, ACC gene containing I1781(Am)L and I2041(Am)N, or ACC gene containing I1781(Am)A or wild type which also contains a mutant AHAS gene for selection. Agrobacterium grown for 1-3 days on solid media was suspended in M-LS-002 medium and the OD660 adjusted to approximately 0.1. Callus was immersed in the Agrobacterium solution for approximately 30 minutes. Liquid was removed, and then callus was moved to filter paper for co-culture on semi-solid rice cc media. Co-culture was for 3 days in the dark at 24° C. Filters containing rice callus were directly transferred to R001M media containing Timentin for 1-2 weeks for recovery and cultured in the dark at 30° C. Callus was subdivided onto fresh R001M media with Timentin and supplemented with 100 μM Imazethapyr, 10 μM Cycloxydim or 2.5 μM Tepraloxydim. After 3-4 weeks, callus was transferred to fresh selection media. Following another 3-4 weeks, growing callus was transferred to fresh media and allowed to grow prior to Taqman analysis. Taqman analysis was for the Nos terminator and was conducted to provide for a molecular confirmation of the transgenic nature of the selected calli. Growth of transgenic calli was measured with various selection agents by subculturing calli on media containing either 10 μM Cycloxydim or Haloxyfop, 2.5 μM Tepraloxydim or 100 μM Imazethapry. Calli size was measured from scanned images following initial subculture and then after approximately 1 month of growth.
(§2) As can be observed in Table 7, the double mutant constructs allowed for growth on both Cycloxydim and Tepraloxydim in addition to Haloxyfop. The levels utilized in these growth experiments are inhibitory for wild type material. Growth was measured as a % change in size following 1 month of culture on the selection media.

Data set [2] concerns transgenic Indica1 rice callus, ACC gene containing I1781(Am)L and W2027(Am)C. The data set is described as above. Type of data set: cell-based, Oryza sativa. The following applies: construct I1781(Am)L. As for the experimental part: as §1, §2
Data set [3] relates to rice plants containing the I1,781(Am)L heterozygous mutation. Type of data set: in vivo, Oryza sativa. To be noted: 400-1600 g ai/ha with 0.1% methylated seed oil; rated 1 and 2 weeks after treatment. The method, then:
(§3) Selected mutants and escapes were transferred to small pots. Wild-type cultivars and 3 biovars of red rice were germinated from seed to serve as controls.
(§4) After ca. 3 weeks post-transplant. M0 regenerants were sprayed using a track sprayer with 400-1600 g ai/ha cycloxydim (BAS 517H) supplemented with 0.1% methylated seed oil. After the plants had adapted to greenhouse conditions, a subset were sprayed with 800 g ai/ha cycloxydim. Once sprayed, plants were kept on drought conditions for 24 hours before being watered and fertilized again. Sprayed plants were photographed and rated for herbicide injury at 1 (FIG. 3) and 2 weeks after treatment (FIG. 4). […] FIGS. 5-15 provide nucleic acid and/or amino acid sequences of acetyl-Coenzyme A carboxylase enzymes from various plants. FIG. 17 provides a graph showing results for mutant rice versus various ACCase inhibitors.

The subject of data set [4] is ACCase-inhibitor tolerant rice plants. Nature of the data set: Field treatment of ACCase-inhibitor tolerant rice. Format: in vivo, Oryza sativa. The following applies: 600 g/ha; data not shown.
The test system of data set [5] is control plants (wild-type cultivars, red rice) and tissue culture escapes. Nature of the data set: Greenhouse track-sprayer test, herbicide injury rating. To be noted: 400-1600 g ai/ha with 0.1% methylated seed oil; rated 1 and 2 weeks after treatment. Type of data set: in vivo, Oryza sativa. As for the experimental part: as §3, §4

As to `CCc1cnc(C2=NC(C)(C(C)C)C(=O)N2)c(C(=O)O)c1` (centres unmarked) [P100, Imazethapyr], the “Growth, % change in size following 1 month of culture on the selection media” value (from here on “Growth, % change … on the selection media”) in data set [1] (100 μM in selection media) is on record as 634%; in data set [2] (100 μM in selection media), 739%.
Consider `CCCC(=NOCC)C1=C(O)CC(C2CCCSC2)CC1=O` (centres unmarked) [cycloxydim], for which the herbicide injury result in data set [3] was “No injury”; in data set [5], “heavily damaged”. The “Growth, % change … on the selection media” value came out at 884% in data set [1] (10 μM in selection media) and 867% in data set [2] (10 μM in selection media). The “herbicide tolerance in the field” value in data set [4] was “Herbicide tolerance phenotypes as described herein have also been exhibited”.
For the compound `CC(Oc1ccc(Oc2ncc(C(F)(F)F)cc2Cl)cc1)C(=O)O` (centres unmarked) [haloxyfop], the results for the “Growth, % change … on the selection media” value in data set [1] (10 μM in selection media) and in data set [2] (10 μM in selection media) were 1613% and 1669%, respectively.
`CC/C(=N\OC/C=C/Cl)C1=C(O)CC(C2CCOCC2)CC1=O` (centres unmarked) [tepraloxydim]: the “Growth, % change … on the selection media” value in data set [1] (2.5 μM in selection media) was 1360%; in data set [2] (2.5 μM in selection media), 1416%.
